The text below walks through data of patent publication US20130303788A1, “METHOD OF PRODUCING BIPHENOLIC COMPOUND, NOVEL BIPHENYL COMPOUND AND SYNTHESIS METHOD THEREOF, AND PHARMACEUTICAL COMPOSITION FOR TREATING PARKINSON'S DISEASE” (Tzu Chi University, priority 2012, published 2013).

This assay relates to iNOS (Inducible Nitric Oxide Synthase). The experiment in a line: iNOS expression level (iNOS immunohistochemistry) in striatum of 6-OHDA mouse model of PD. In kind it is in vivo, NMRI mice. The following applies: Day 21 after 6-OHDA, FIG. 17. How it is done:
The respective NMRI mouse was deeply anaesthetized with thiopental (50 mg/kg, intraperitoneally). The respective NMRI mouse was perfused transcardially with a heparin solution (0.05% heparin in 0.1 M PBS), and was subsequently perfused with 100 mL of ice-cold fixative (4% paraformaldehyde in 0.1 M PBS). The brain of the respective NMRI mouse was removed and was postfixed in the same ice-cold fixative for 12 hours, followed by dehydration in 30% sucrose in 0.1 M PBS. The brain was frozen and was subjected to tissue slicing. Serial coronal sections (a thickness of 20 μm) were cut on a freezing microtome and were placed in PBS. The sections were later processed for free-floating TH or iNOS immunohistochemistry.
The sections were rinsed three times with PBS (30 minutes for each time), were treated with 3% H2O2/10% methanol in PBS for 30 minutes for quenching the endogenous peroxidase activity, and were rinsed three times with PBS. […]
TH expression level in the striatum and the substantia nigra (SN), and iNOS expression level in the striatum were determined according to the method as described in section 4 of General Procedures on Day 21 after the injection of 6-OHDA or the vehicle. […]

For the compound `C=CCc1ccc(O)c(-c2ccc(O)c(CC=C)c2)c1` [product 1, 5,3′-Diallyl-biphenyl-2,4′-diol], the “iNOS expression in the striatum, subchronic post-treatment” value (0.5, 1, 5 mg/kg i.p. 14 consecutive days starting Day 7) is “significantly inhibited iNOS expression in the striatum”. Moreover, the “relationship between dose and number of iNOS-positive cells in the striatum” value (0.5, 1, 5 mg/kg i.p.) is reported as “dose-dependent relationship”.
